Laboratory results from publication PMC6356765, “Nepafenac-Loaded Cyclodextrin/Polymer Nanoaggregates: A New Approach to Eye Drop Formulation” (Materials, 2019).

Legend:
[1] = Chemical stability of nepafenac in 1% w/v γCD solution after heating by sonication; assay type: physicochemical; conditions: for Mean (± SD) Nepafenac Concentration: aqueous 1% w/v γCD, n = 3
Procedure: The chemical stability of nepafenac was determined in aqueous solution containing 1% w/v γCD following heating by sonication. The solution was shaken for 24 h until the drug was completely dissolved and then passed through a 0.45 µm membrane filter. The solution was then divided between four sealed vials. Vial 1 was used as a blank. Vials 2, 3 and 4 were heated in a sonicator at 60 °C for 20, 40 and 60 min, respectively. Drug concentrations were determined by HPLC.
The HPLC assay was performed using a reverse-phase ultra-high-performance liquid chromatography (UHPLC) Ultimate 3000 series system (Dionex Softron GmbH, Germering, Germany) consisting of a LPG-3400SD pump (Dionex, Germering, Germany) with a built-in degasser, WPS-3000 autosampler (Dionex, Germering, Germany), TCC-3100 column compartment (Dionex, Germering, Germany) and CoronaR ultra RS detector (Dionex, Germering, Germany). During the stationary phase, a Phenomenex Kinetex C18 column (150 × 4.6 mm, 5 µm) with matching HPLC Security Guard (Phenomenex, Cheshire, UK) was used. The mobile phase used a mixture of acetonitrile and water (50:50). The flow rate was 1 mL/min, the column oven temperature was ±25 °C and the detection wave length was set to 254 nm. The retention time for nepafenac under these conditions was 2.3 min.

[2] = Phase solubility studies of nepafenac with cyclodextrins; assay type: physicochemical; conditions: pure 2.5% HPβCD, aqueous (Figure 2)
Procedure: The solubility of nepafenac in combination with different cyclodextrin concentrations was determined following heating by sonication. Firstly, an excess amount of nepafenac (approximately 5 mg) was added to aqueous solutions containing known concentrations of CDs (ranging up to 15% (w/v) for αCD, γCD, HPαCD, HPβCD, HPγCD and 1.5% (w/v) for βCD) in pure water. The drug suspensions were saturated with nepafenac and heated in a sonicator in sealed vials at 60 °C for 60 min, before being allowed to cool to room temperature. Then, a small amount of solid nepafenac (approximately 2 mg) was added to each suspension to produce drug precipitation. Vials were resealed and placed in a shaker under constant agitation for 7 days. After reaching equilibrium, suspensions were filtered using 0.45 µm membrane filters, before being diluted in pure water and analysed by UHPLC. Determinations were made in triplicate. […]
The apparent stability constant (K1:1) according to the hypothesis of a 1:1 stoichiometric ratio of complexes was calculated using the following equation:(1) K1:1 = slope/S0(1−slope)
In addition, complexation efficiency (CE) was calculated. This factor can be calculated either from the slope of the phase solubility profile or from the ratio of the concentration of the drug/CD complex to free CD [52]:(2) CE=slope/(1−slope)=[Guess/CD complex]/[CD]

[3] = design: method as in PMID 27513223, PMID 18500088, PMID 17189793, PMID 28493461; conditions: powdered form; cited from earlier work
[4] = test system: human cornea epithelial cell line; design: method as in PMID 9706061; conditions: cited from earlier work

SMILES	Degradation of nepafenac on heating by sonication ([1]; CD aqueous solutions, sonicator heating)	Mean (± SD) Nepafenac Concentration ([1]; sonication 60 °C 20 min)	Mean (± SD) Nepafenac Concentration ([1]; sonication 60 °C 40 min)	Mean (± SD) Nepafenac Concentration ([1]; sonication 60 °C 60 min)	Solubility of nepafenac [2]	Biopharmaceutical Classification System class [3]	Cytotoxic profile (ranking among CDs) [4]
NC(=O)Cc1cccc(C(=O)c2ccccc2)c1N [Nepafenac, 2-amino-3-benzoylbenzeneacetamide]	no degradation	6.41 ± 0.08 µg/mL	6.49 ± 0.07 µg/mL	6.57 ± 0.08 µg/mL	850 µg/mL	class IV	–
OC[C@H]1O[C@@H]2O[C@H]3[C@H](O)[C@@H](O)[C@@H](O[C@H]4[C@H](O)[C@@H](O)[C@@H](O[C@H]5[C@H](O)[C@@H](O)[C@@H](O[C@H]6[C@H](O)[C@@H](O)[C@@H](O[C@H]7[C@H](O)[C@@H](O)[C@@H](O[C@H]8[C@H](O)[C@@H](O)[C@@H](O[C@H]9[C@H](O)[C@@H](O)[C@@H](O[C@H]1[C@H](O)[C@H]2O)O[C@@H]9CO)O[C@@H]8CO)O[C@@H]7CO)O[C@@H]6CO)O[C@@H]5CO)O[C@@H]4CO)O[C@@H]3CO [γCD, γ-cyclodextrin]	–	–	–	–	–	–	least cytotoxic profile
